The test addresses T1, recombinant human PARP (PARP1) (Homo sapiens, UniProt P09874).
T1 construct: Full length human PARP (PARP1) is assembled from PCR fragments; His6 tag with TEV site, from the pFastBac-HTb vector (own knowledge of the vector); made in house; host or cells: insect cells, baculovirus (Bac-to-Bac, Gibco-BRL)
Put plainly: PARP enzyme assay, Method A (radioactivity or 'ELISA' enzyme assay with partially purified enzyme). It is filed as biochemical. The settings on record: recombinant human PARP preparation, radioactive or ELISA enzyme assay. An excerpt: Two different methods are employed in determining the activity of the compounds of this invention in inhibiting the activity of PARP enzyme, designated as Method A and Method B respectively as set forth below.
Method A: Cloning and Expression, and Partial Purification of Recombinant Human PARP:
Full length human PARP (PARP1) is assembled from PCR fragments of a clone from a human brain cDNA library and two Incyte clones. The PARP gene (3046 bp) is sub-cloned into pFastBac-HTb vector to give PARP-pFastBac-HTb and the sequence of this clone is verified. PARP-pFastBac-HTb is expressed to obtain protein using the Bac-to-Bac expression protocol from Gibco-BRL. The recombinant virus generated is used to scale up the material for purification.
Cell pellets from cell broth of cells expressing PARP are treated with a cocktail of protease inhibitors and lysed by 4 freeze-thaw cycles. The material is suspended in 10 mM HEPES/0.1M NaCl/pH 7.2, stirred, and then centrifuged. A 40%-70% ammonium sulfate cut of protein pellet is obtained from the supernatant. The pellet is solubilized in 10 mM HEPES/pH 7.2 and centrifuged. The supernatant buffer is exchanged to 10 mM HEPES/pH 7.2/0.1M NaCl/25% glycerol by dialysis or with a desalting column. The enzyme preparation is stored at −20° C. until use.
The compounds of this invention are then tested with this enzyme preparation using either the radioactive enzyme assay or by the “ELISA” enzyme assay as set forth below.
Radioactivity Enzyme Assay:
Incorporation of radioactivity from labeled NAD into acid-precipitated protein is measured. The reaction mixture (volume 100 μL or 50 μL, in a test-tube or 96-well plate) contained 100 μg/mL calf thymus DNA (sonicated), 100 μg/mL histones, 100 mM Tris (pH 8.0), 1.0 mM DTT, 10 mM MgCl2, NAD (200 μM, 0.65 microcurie/mL), and varying amounts of enzyme. The reaction was incubated for 10 min at 37° C. or at room temperature for 60 min. The reaction was stopped and protein precipitated by addition of ice-cold trichloroacetic acid (TCA; 10% or 20% aqueous w/v). After brief storage in ice or at 4° C. for 2 hrs, the reaction mixture is filtered under vacuum through a glass fiber filter (2.5 cm disc, or 96-well filter plate). After washing with TCA and ethanol, the filter is dried and counted for tritium CPM after addition of scintillation fluid.
Incorporation of biotin-NAD into histone coated on plate is measured. A 96-well protein-binding EIA plate is coated with histone and blocked with bovine serum albumin. The reaction mixture (50 μL) contained DNA, buffer, enzyme, (test compound), and 250 μM of NAD and 5 μL of biotin-NAD (Trevigen). After reaction at room temperature the wells are washed and treated with Extravidin (Sigma). After incubation and washing color is developed with the peroxidase substrate TMB (Sigma). The TMB reaction is quenched with 2M sulfuric acid and the absorbance at 450 nm is read.

Structures can show the parent of a compound that is named as a salt.

T1 sequence (P09874 whole entry, the tested form may be a part): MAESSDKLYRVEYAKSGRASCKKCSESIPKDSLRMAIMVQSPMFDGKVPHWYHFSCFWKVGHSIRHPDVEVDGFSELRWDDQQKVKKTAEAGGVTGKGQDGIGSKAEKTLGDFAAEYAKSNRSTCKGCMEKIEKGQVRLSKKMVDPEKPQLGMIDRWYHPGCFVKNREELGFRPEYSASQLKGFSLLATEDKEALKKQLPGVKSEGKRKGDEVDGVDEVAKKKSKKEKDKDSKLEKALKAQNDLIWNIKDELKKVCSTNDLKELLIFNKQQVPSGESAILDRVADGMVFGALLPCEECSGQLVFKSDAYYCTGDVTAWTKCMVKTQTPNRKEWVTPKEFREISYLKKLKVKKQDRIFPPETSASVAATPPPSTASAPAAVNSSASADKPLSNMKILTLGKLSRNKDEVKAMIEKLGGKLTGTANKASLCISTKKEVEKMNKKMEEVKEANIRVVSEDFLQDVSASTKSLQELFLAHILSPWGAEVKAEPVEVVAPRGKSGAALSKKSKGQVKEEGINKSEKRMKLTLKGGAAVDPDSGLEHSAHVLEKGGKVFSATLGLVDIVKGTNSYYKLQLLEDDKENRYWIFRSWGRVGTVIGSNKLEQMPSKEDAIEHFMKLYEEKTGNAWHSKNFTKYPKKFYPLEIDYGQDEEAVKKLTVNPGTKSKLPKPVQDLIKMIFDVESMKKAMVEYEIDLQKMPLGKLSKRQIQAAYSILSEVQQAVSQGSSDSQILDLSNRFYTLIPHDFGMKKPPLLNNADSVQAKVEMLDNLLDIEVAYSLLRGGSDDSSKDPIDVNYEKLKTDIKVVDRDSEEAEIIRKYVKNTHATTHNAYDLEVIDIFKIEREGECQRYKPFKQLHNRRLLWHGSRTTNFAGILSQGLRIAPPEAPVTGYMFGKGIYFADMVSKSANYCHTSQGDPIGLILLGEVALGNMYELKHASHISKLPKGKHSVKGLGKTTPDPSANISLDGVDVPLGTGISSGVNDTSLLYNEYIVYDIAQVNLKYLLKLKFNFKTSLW

As for `CCc1cc(-c2ccc(S(=O)(=O)NCc3ccc(N(C)C)nc3)s2)c(C)[nH]c1=O` [Example 78, 5-(5-Ethyl-2-methyl-6-oxo-1,6-dihydropyridin-3-yl)thiophene-2-sulfonic acid [(6-dimethylaminopyridin-3-yl)methyl]amide hydrochloride], the 50% inhibitory concentration (IC50) came to 0.2 µM.
Consider `CCc1cc(-c2ccc(S(N)(=O)=O)s2)c(C)[nH]c1=O` [Example 111, 5-(5-ethyl-2-methyl-6-oxo-1,6-dihydro-pyridin-3-yl)-thiophene-2-sulfonic acid amide], for which the IC50 turned out to be 0.21 µM.
Consider `CCc1cc(-c2ccc(CNC3CCN(CC4CCCCC4)CC3)s2)c(C)[nH]c1=O` [Example 132, 5-{5-[(1-Cyclohexylmethyl-piperidin-4-ylamino)-methyl]thiophen-2-yl}-3-ethyl-6-methyl-1H-pyridin-2-one dihydrochloride], for which the IC50 is 1.3 µM.
For `CCc1cc(-c2ccc(CNCc3ccccc3Cl)s2)c(C)[nH]c1=O` [Example 188, 5-{5-[(2-Chlorobenzylamino)methyl]thiophen-2-yl}-3-ethyl-6-methyl-1H-pyridin-2-one hydrochloride] the value was 0.84 µM; for `CCc1cc(-c2ccc(S(=O)(=O)N(C)Cc3ccco3)s2)c(C)[nH]c1=O` [Example 106, 5-(5-Ethyl-2-methyl-6-oxo-1,6-dihydro-pyridin-3-yl)thiophene-2-sulfonic acid furan-2-yl-methyl-methylamide], 0.43 µM; for `CCc1cc(-c2ccc(CNCc3cccc(C)c3)s2)c(C)[nH]c1=O` [Example 165, 5-{5-[(3-Methylbenzylamino)methyl]thiophen-2-y}]-3-ethyl-6-methyl-1H-pyridin-2-one hydrochloride], 0.98 µM.
On to `CCc1cc(-n2nccn2)c(C)[nH]c1=O` [Example 12, 3-Ethyl-6-methyl-5-(1,2,3-triazol-2-yl)-1H-pyridin-2-one], for which the IC50 came to 1.6 µM.
Regarding `CCc1cc(-c2ccc(S(=O)(=O)N3CCC(n4ccnc4)CC3)s2)c(C)[nH]c1=O` [Example 79, 3-Ethyl-5-[5-(4-imidazol-1-yl)piperidine-1-sulfonyl)thiophen-2-yl]-6-methyl-1H-pyridin-2-one hydrochloride], the IC50 was 0.45 µM.
The figure for `CCc1cc(-c2ccc(CNCCc3ccccn3)s2)c(C)[nH]c1=O` [Example 141, 3-Ethyl-6-methyl-5-{5-[(2-pyridin-2-ylethylamino)methyl]thiophen-2-yl}-1H-pyridin-2-one dihydrochloride] is 0.54 µM; for `CCc1cc(-c2ccc(S(=O)(=O)NCCCN3CCC(O)C3)s2)c(C)[nH]c1=O` (stereo not drawn) [Example 30, 5-(5-Ethyl-2-methyl-6-oxo-1,6-dihydro-pyridin-3-yl)-thiophene-2-sulfonic acid [3-(3-hydroxy-pyrrolidin-1-yl)-propyl]-amide hydrochloride] it is 10 µM; for `CCc1cc(-c2ccc(CNCCc3cccnc3)s2)c(C)[nH]c1=O` [Example 163, 3-Ethyl-6-methyl-5-{5-{[(pyridin-3-ylethyl)amino]methyl}thiophen-2-yl)-1H-pyridin-2-one dihydrochloride] it is 1.7 µM.
The figure for `CCc1cc(-c2ccc(S(=O)(=O)NCCN3CCCCC3)s2)c(C)[nH]c1=O` [Example 69, 5-[5-Ethyl-2-methyl-6-oxo-1,6-dihydropyridin-3-yl]thiophene-2-sulfonic acid (2-piperidin-1-yl)ethylamide hydrochloride] is 0.26 µM; for `CCc1cc(-c2ccc(S(=O)(=O)N3CCCN(C)CC3)o2)c(C)[nH]c1=O` [Example 52, 3-Ethyl-6-methyl-5-[5-(4-methyl-1,4-diazepane-1-sulfonyl)furan-2-yl]-1H-pyridin-2-one hydrochloride] it is 0.38 µM.
The figure for `CCc1cc(-c2ccc(CNCCCn3ccnc3)s2)c(C)[nH]c1=O` [Example 153, 3-Ethyl-6-methyl-5-{5-[(3-imidazol-1-yl-propylamino)-methyl]thiophen-2-yl)-1H-pyridin-2-one dihydrochloride] is 0.67 µM; for `CCc1cc(-c2ccc(S(=O)(=O)NC3CCN(Cc4ncc[nH]4)CC3)s2)c(C)[nH]c1=O` [Example 83, 5-[5-Ethyl-2-methyl-6-oxo-1,6-dihydropyridin-3-yl]thiophene-2-sulfonic acid (1-imidazol-2-yl)methyl(piperidin-4-yl)]amide dihydrochloride] it is 2.8 µM.
In the case of `CCc1cc(-c2ccc(CN3CCC(Cc4ccccc4)CC3)s2)c(C)[nH]c1=O` [Example 183, 5-[5-(4-Benzylpiperidin-1-ylmethyl)thiophen-2-yl]-3-ethyl-6-methyl-1H-pyridin-2-one hydrochloride], the IC50 amounted to 2.4 µM.
The figure for `CCc1cc(-c2ccc(S(=O)(=O)N3CCN(CCO)CC3)s2)c(C)[nH]c1=O` [Example 91, 3-Ethyl-5-{5-[4-(2-hydroxyethyl)piperazine-1-sulfonyl]thiophen-2-yl}-6-methyl-1H-pyridin-2-one hydrochloride] is 2.9 µM; for `CCc1cc(-c2nc(C)nn2C)c(C)[nH]c1=O` [Example 20, 5-(2,5-Dimethyl-2H-1,2,4-triazol-3-yl)-3-ethyl-6-methyl-1H-pyridin-2-one] it is 1.1 µM; for `CCc1cc(-c2ccc(CN)s2)c(C)[nH]c1=O` [Example 175, 5-(5-Aminomethylthiophen-2-yl)-3-ethyl-6-methyl-1H-pyridin-2-one hydrochloride] it is 0.15 µM.
On to `CCc1cc(-c2ccc(S(=O)(=O)N3CCN(CCc4ccccn4)CC3)s2)c(C)[nH]c1=O` [Example 60, 3-Ethyl-6-methyl-5-{5-[4-(2-pyridin-2-yl)ethylpiperazine-1-sulfonyl]thiophen-2-yl}-1H-pyridin-2-one dihydrochloride], for which the IC50 is 1.7 µM.
For `CCc1cc(-c2ccc(CNCc3cccc(Cl)c3)s2)c(C)[nH]c1=O` [Example 164, 5-{5-[(3-Chlorobenzylamino)methyl]thiophen-2-y}]-3-ethyl-6-methyl-1H-pyridin-2-one hydrochloride] the value was 0.69 µM.
On to `CCc1cc(-c2ccc(CNC3CCN(Cc4ccccc4)C3)s2)c(C)[nH]c1=O` (stereo not drawn) [Example 159, 5-{5-[(1-Benzyl-pyrrolidin-3-ylamino)-methyl]-thiophen-2-yl}-3-ethyl-6-methyl-1H-pyridin-2-one dihydrochloride], for which the IC50 worked out at 0.72 µM.
Take `CCc1cc(-c2ccc(S(=O)(=O)NCCCN(C)C)s2)c(C)[nH]c1=O` [Example 34, 5-(5-Ethyl-2-methyl-6-oxo-1,6-dihydropyridin-3-yl)thiophene-2-sulfonic acid (3-dimethylaminopropyl)amide hydrochloride]: the concentration for half-maximal inhibition (IC50) was determined as 4.5 µM.
The figure for `CCc1cc(-c2ccc(S(=O)(=O)N3CCN(C)CC3)s2)c(C)[nH]c1=O` [Example 92, 3-Ethyl-6-methyl-5-[5-(4-methylpiperazine-1-sulfonyl)thiophen-2-yl]-1H-pyridin-2-one] is 1.3 µM; for `CCc1cc(-c2ccc(S(=O)(=O)N3CCC(C(=O)c4ccccc4)CC3)s2)c(C)[nH]c1=O` [Example 108, 5-[5-(4-Benzoylpiperidine-1-sulfonyl)thiophen-2-yl]-3-ethyl-6-methyl-1H-pyridin-2-one] it is 1 µM; for `CCc1cc(-c2ccc(CNCC3CCN(Cc4cc(F)cc(F)c4)CC3)s2)c(C)[nH]c1=O` [Example 140, 5-(5-{[1-(3,5-Difluoro-benzyl)-)-piperidin-4-ylmethyl]-amino}methyl-thiophen-2-yl)-3-ethyl-6-methyl-1H-pyridin-2-one hydrochloride] it is 0.64 µM.
As to `CCc1cc(-c2ccc(S(=O)(=O)N3CCC(N4CCCC4)CC3)s2)c(C)[nH]c1=O` [Example 66, 3-Ethyl-6-methyl-5-{5-[(4-pyrrolidin-1-yl)piperidine-1-sulfonyl]thiophen-2-yl}-1H-pyridin-2-one hydrochloride], the IC50 turned out to be 0.67 µM.

(Values after US8173682B2, “Substituted pyridones as inhibitors of poly(ADP-ribose) polymerase (PARP)” (Aventis Pharmaceuticals Inc., priority 2004, dated 2012).)
